Results published in patent US8735423B2, “Bicyclic compounds as α4β2 nicotinic acetylcholine receptor ligands” (priority 2009, dated 2014).
Where two headings read alike, the source gives them in different places.

Experiments:
Male Wister rats = experiment: Object Recognition Task Model; assay type: in vivo; conditions: rat; for Exploration time mean ± S.E.M, Familiar object / Exploration time mean ± S.E.M, Novel object: choice trial T2
Protocol: Object Recognition Task Model
The cognition-enhancing properties of compounds of this invention were estimated using a model of animal cognition: the object recognition task model.
Male Wister rats (230-280 grams) obtained from N. I. N. (National Institute of Nutrition, Hyderabad, India) was used as experimental animals. Four animals were housed in each cage. Animals were kept on 20% food deprivation before one day and given water ad libitum throughout the experiment and maintained on a 12 hours light/dark cycle. Also the rats were habituated to individual arenas for 1 hour in the absence of any objects.
One group of 12 rats received vehicle (1 mL/Kg) orally and another set of animals received compound of the formula (I) either orally or i.p., before one hour of the familiar (T1) and choice trial (T2).
The experiment was carried out in a 50×50×50 cm open field made up of acrylic. In the familiarization phase, (T1), the rats were placed individually in the open field for 3 minutes, in which two identical objects (plastic bottles, 12.5 cm height×5.5 cm diameter) covered in yellow masking tape alone (a1 and a2) were positioned in two adjacent corners, 10 cm. from the walls. After 24 hours of the (T1) trial for long-term memory test, the same rats were placed in the same arena as they were placed in T1 trial. Choice phase (T2) rats were allowed to explore the open field for 3 minutes in presence of one familiar object (a3) and one novel object (b) (Amber color glass bottle, 12 cm high and 5 cm in diameter). Familiar objects presented similar textures, colors and sizes. During the T1 and T2 trial, explorations of each object (defined as sniffing, licking, chewing or having moving vibrissae whilst directing the nose towards the object at a distance of less than 1 cm) were recorded separately by stopwatch. Sitting on an object was not regarded as exploratory activity, however, it was rarely observed.
T1 is the total time spent exploring the familiar objects (a1+a2).
T2 is the total time spent exploring the familiar object and novel object (a3+b).
The object recognition test was performed as described by Ennaceur, A., Delacour, J., 1988, A new one-trial test for neurobiological studies of memory in rats—Behavioural data, Behay. Brain Res., 31, 47-59.
Some representative compounds have shown positive effects indicating the increased novel object recognition viz; increased exploration time with novel object and higher discrimination index.

[1] = molecular target: Human or Rat Nicotinic Acetylcholine α4β2 receptor (UniProt P09483+P12390); experiment: Binding assay for Human or Rat Nicotinic Acetylcholine α4β2 receptor ([3H] Cytisine); conditions: [3H] Cytisine 2.5 nM; rat brain frontal cortex or recombinant human cDNA expressed in CHO cells
Protocol: Binding assay for Human or Rat Nicotinic Acetylcholine α4β2 receptor
Compounds can be evaluated according to the following procedures.
Materials and Methods: • Receptor source: Rat brain frontal cortex or recombinant human cDNA expressed in CHO cells • Radioligand: [^3H] Cytisine 15-40 Ci/mmol • Final ligand concentration—[2.5 nM] • Non-specific determinant: Epibatidine-[0.1 μM] • Reference compound: Epibatidine • Positive control: Epibatidine Incubation Conditions:
Increasing concentrations of test compounds or standard were incubated with membrane receptors and radioligand in 120 mM NaCl, 2.5 mM KCl, 1 mM CaCl2, 1 mM MgCl2 and 50 mM TRIS-HCl (pH 7.4) for 60 minutes at room temperature. The reaction was terminated by rapid vacuum filtration onto the glass fiber filters. Radioactivity trapped onto the filters was determined and compared to the control values in order to ascertain any interactions of the test compound(s) with either cloned human or rat receptor binding site.
Literature Reference: Bunnelle W. H., Daanen J. F., Ryther K. B., Schrimpf M. R., Dart M. J., Gelain A., Meyer M. D., Frost J. M., Anderson D. J., Buckley M., Curzon P., Cao Y-J., Puttfarcken P., Searle X., Ji J., Putman C. B., Surowy C., Toma L. and Barlocco D. Structure-Activity Studies and Analgesic Efficacy of N-(3-Pyridinyl)-Bridged Bicyclic Diamines, Exceptionally Potent Agonists at Nicotinic Acetylcholine Receptors. J. Med. Chem. 2007, 50, […].

[2] = Rodent Brain Penetration Study; conditions: in vivo, Wistar rat male, P.O, read-out: Steady State Brain Penetration (Cb/Cp)
Protocol: Rodent Brain Penetration Study
Male Wistar rats (230-280 grams) obtained from NIN (National Institute of Nutrition, Hyderabad, India) was used as an experimental animal. Three animals were housed in each cage. Animals were given water and food ad libitum throughout the experiment, and maintained on a 12 hours light/dark cycle.
NCE compound was dissolved in water and administered orally. At Tmax (0.5, 1.0 and 2.0) animals were sacrificed to collect the plasma and brain tissue and was homogenized. Plasma and Brain was stored frozen at −20° C. until analysis. The concentrations of the NCE compound in plasma and Brain were determined using LC-MS/MS method.
The NCE compounds were quantified in plasma and brain homogenate by validated LC-MS/MS method using solid phase extraction technique. NCE compounds were quantified in the calibration range of 1-500 ng/mL in plasma and brain homogenate. Study samples were analyzed using calibration samples in the batch and quality control samples spread across the batch. Extents of brain-blood ratio were calculated (Cb/Cp).

[3] = molecular target: T1, recombinant human α4β2 nicotinic acetylcholine receptor (Homo sapiens, UniProt P17787+P43681); experiment: Determination of IC50 and Kb values, aequorin luminescence assay in CHO cells; assay type: cell-based; conditions: antagonist mode, fixed concentration of agonist epibatidine, CHO cells, luminescence; read-out: Kb
T1 construct: expressed in transfected cells
Protocol: Determination of IC50 and Kb Values for Nicotinic Acetylcholine α4β2 Receptor Ligands
A stable CHO cell line expressing recombinant human α4β2 nicotinic acetylcholine receptor transiently expressing aequorin protein was used for cell-based assay. The assay offers a non-radioactive based approach to determine binding of a compound to ligand gated ion channels. In this specific assay, the level of intracellular calcium which is modulated by activation or inhibition of the channel is measured. Both the channel and aequorin genes are expressed at high level under the control of powerful CMV promotor.
The above cells were grown in 96 well clear bottom white plates in Hams F12 medium containing 10% fetal bovine serum (FBS). Prior to the addition of compounds and/or agonist, cells were serum starved for six hours. Coelentarazine (a prosthetic group for aequorin protein) was added in the medium containing 0.1% dialyzed serum and incubated overnight at 27° C. Cells were washed with assay buffer and increasing concentration of the test compound or standard were added to the plate for antagonist mode. A fixed concentration of the agonist (eipbatidine) was injected into the plate and luminescence was measured for 10 seconds. For evaluation of the compound in agonist mode, increasing concentration of the standard or test compound was injected and the luminescence was measured. Luminescence units were plotted against the compound concentrations using Graphpad software. IC50 values of the compounds were defined as the concentration required in reducing the luminescent units by 50%. The Kb values were calculated by feeding the concentration of the agonist used in the assay and its EC50 value in the same software.
Literature References: Karadsheh M. S., Shah M. S., Tang X., Macdonald R. L. and Stitzel J. A. Functional characterization of mouse α4β2 nicotinic acetylcholine receptors stably expressed in HEK293T cells. J. Neurochem. 2004, 91, 1138-1150.

T1 sequence (P43681 29-627): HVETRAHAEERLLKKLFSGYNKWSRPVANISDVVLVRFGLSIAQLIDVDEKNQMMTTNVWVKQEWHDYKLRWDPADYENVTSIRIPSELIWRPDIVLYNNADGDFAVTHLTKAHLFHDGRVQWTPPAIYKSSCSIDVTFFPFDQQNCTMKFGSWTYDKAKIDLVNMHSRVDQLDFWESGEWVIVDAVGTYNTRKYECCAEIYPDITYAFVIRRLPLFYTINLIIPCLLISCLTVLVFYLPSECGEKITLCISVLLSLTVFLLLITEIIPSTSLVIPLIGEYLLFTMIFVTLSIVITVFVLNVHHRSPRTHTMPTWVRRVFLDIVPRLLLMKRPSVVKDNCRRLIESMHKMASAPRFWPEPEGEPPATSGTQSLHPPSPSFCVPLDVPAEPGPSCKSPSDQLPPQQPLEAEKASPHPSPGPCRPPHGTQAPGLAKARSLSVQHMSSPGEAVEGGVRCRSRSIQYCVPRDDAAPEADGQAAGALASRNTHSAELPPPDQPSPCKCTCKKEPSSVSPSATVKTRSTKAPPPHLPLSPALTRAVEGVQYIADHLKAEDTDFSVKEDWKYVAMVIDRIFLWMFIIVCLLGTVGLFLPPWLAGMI
T1 sequence (P17787 26-502): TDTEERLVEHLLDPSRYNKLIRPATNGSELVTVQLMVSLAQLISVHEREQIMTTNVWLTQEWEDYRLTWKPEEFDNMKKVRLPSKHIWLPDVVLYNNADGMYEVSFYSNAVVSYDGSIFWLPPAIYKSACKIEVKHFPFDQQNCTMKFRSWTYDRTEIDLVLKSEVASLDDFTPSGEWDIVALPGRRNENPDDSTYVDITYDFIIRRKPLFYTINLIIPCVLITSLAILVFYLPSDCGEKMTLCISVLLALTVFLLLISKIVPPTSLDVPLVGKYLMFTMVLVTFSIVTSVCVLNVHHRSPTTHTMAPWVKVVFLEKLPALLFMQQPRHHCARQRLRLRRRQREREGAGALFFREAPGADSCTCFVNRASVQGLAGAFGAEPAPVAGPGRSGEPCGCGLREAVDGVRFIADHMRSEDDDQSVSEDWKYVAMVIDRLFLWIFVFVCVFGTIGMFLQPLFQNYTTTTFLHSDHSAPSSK

Row | SMILES | Inference (Male Wister rats; 0.1 mg/kg p.o.) | Exploration time mean ± S.E.M, Familiar object (Male Wister rats; 0.1 mg/kg p.o.) [s] | Exploration time mean ± S.E.M, Novel object (Male Wister rats; 0.1 mg/kg p.o.) [s] | Ki [1] [nM] | Kp ([2]; 15 mg/kg) | Kb [3] [nM] | Inference (Male Wister rats; 1 mg/kg p.o.) | Exploration time mean ± S.E.M, Familiar object (Male Wister rats; 1 mg/kg p.o.) [s] | Exploration time mean ± S.E.M, Novel object (Male Wister rats; 1 mg/kg p.o.) [s] | Kp ([2]; 5 mg/kg)
1 | Cl.c1cncc(OCC2CC3CC3N2)c1 (stereo not drawn) [Example 1, 3-(Pyridin-3-yloxymethyl)-2-azabicyclo[3.1.0]hexane hydrochloride] | Active | 7.75 ± 0.84 | 12.65 ± 1.96 | 7.7 | 3.8 ± 0.289 | 7.1 | – | – | – | –
2 | Cl.Cl.Clc1cncc(OCC2CC3CC3N2)c1 (stereo not drawn) [Example 7, 3-(5-Chloropyridin-3-yloxymethyl)-2-azabicyclo[3.1.0]hexane dihydrochloride] | – | – | – | 0.19 | – | 17.8 | Active | 6.81 ± 1.49 | 16.70 ± 3.19 | 3.79 ± 0.66
